Here are results for three compounds from US11582969B2, “Non-nematicidal composition and use thereof” (BioAtlantis Limited, priority 2013, dated 2023).

Test [1] has as its system potatoes grown in plots infested with Globodera pallida. The test can be described thus: Field trial 2013: potato yield with isolated bioactives in plots infested with Globodera pallida. The class given is in vivo, Solanum tuberosum. The conditions noted are these: 2013, average yield per drill (2.59 m^2). The text has this:
Differences in efficacy achieved with Composition 1 and Composition 2 in field trials between 2008-2012 pointed to a differential effect of bioactive levels within the two compositions (Example 1). Laboratory trials on grass species grown in the presence of Meloidogyne minor identified fucan (fucoidan) as one of the bioactives responsible for enhancing growth (Example 2). Despite lower levels of fucoidan, Composition 1 also achieved equivalent increases in root growth in the same trial as compared with the purified fucoidan. […] A field trial was undertaken in 2013 to further determine which bioactives or combinations of bioactives are responsible for conferring enhancements in total and marketable yield in nematode infested growth media. As in previous trials, the forms of glucan and fucan used were laminarin and fucoidan respectively.
Bioactives were isolated and stock solutions prepared to contain glucan alone, mannitol alone, glucan+mannitol, fucan+mannitol and glucan+fucan. The efficacy of the bioactive fractions were assessed in plots known to be infested with Globodera pallida. Treatments were fully randomized with plots of approximately 16 m^2 in area and 6 drills wide. Twelve tubers were planted per drill. One metre spacing was placed between blocks with two drills fallow between treatments. The dimensions of the drills were 0.7 meters wide and 3.7 meters in length. The cultivar Navan, (Solanum tuberosum L. ev. Navan) was planted and compositions applied by foliar spray at 50% post-emergence and at approximately seven day intervals thereafter. Foliar spray ceased once senescence was noticed. For each of the 5 treatments, a total of 621 g of bioactives was applied per Ha. A nematicidal treatment, Vydate, was applied at full rate as a separate treatment. Standard compound fertilizers and fungicides were applied at recommended rates and intervals. The crop was harvested in November. Total harvest weight and marketable yield (>35 mm category) was measured, with comparisons between bioactive treatments and nematicide made by means of One-Way ANOVA.

The subject of test [2] is Perennial ryegrass. The experiment in a line: Pre-soaking seeds: early root growth. The class given is in vivo. The settings on record: seeds pre-soaked 16 hours, 7 day period. As for the experimental part: (§1) The effects of Composition 1 and fucoidan on Creeping bentgrass and Perennial ryegrass root growth were examined in the laboratory setting in the presence or absence of plant parasitic nematodes in 2010. Seeds were pre-soaked in test materials for 16 hours each and left to germinate on wet USGA sand at 16° C. Roots were analysed using WinRHIZO image analysis system, following a 7 day period to assess mean root length following applications (n=10 seedlings per treatment). Experiments were also undertaken to assess the efficacy of Composition 1 and fucoidan in enhancing root length in the presence or absence of plant pathogenic nematodes. Seedlings (×7 replication) were established in sand columns containing USGA specification sand and sprayed on a weekly basis with either Composition 1 or fucoidan. […] Fucoidan was applied at a rate equivalent to 600 g/Ha. Root knot nematodes of the species Meloidogyne minor were inoculated around the roots in week 1, as second stage juveniles. Roots were analysed using WinRHIZO image analysis system following a 25 days period.

For test [3], the system named is Creeping bentgrass. The test can be described thus: Pre-soaking seeds: early root growth. The conditions noted are these: seeds pre-soaked 16 hours, 7 day period, n = 10. The class given is in vivo. As for the experimental part: as §1
Test [4] has as its system Creeping bentgrass, with or without Meloidogyne minor. The experiment in a line: Seedling root length in sand columns with or without Meloidogyne minor. The class given is in vivo. The conditions noted are these: weekly spray, 25 days, n = 7. As for the experimental part:
as §1

For test [5], the system named is Perennial ryegrass, with or without Meloidogyne minor. The test is described as above. Format: in vivo. The conditions noted are these: weekly spray, 25 days, n = 7. As for the experimental part:
as §1

Where [6] appears, read: inoculation with Meloidogyne minor.
Where [7] appears, read: no inoculation with Meloidogyne minor.

Marks after values point to notes of the source that are not given here.

On to `OC[C@@H](O)[C@@H](O)[C@H](O)[C@H](O)CO` [Mannitol-alone, mannitol], for which, in test [1], the “Total Weight (g)” value is on record as 9652** g. In test [1] (>35 mm), the “Marketable weight (g)” value was 9324* g. Also, in test [1] (>35 mm, listed as mannitol-alone), the “Marketable weight” value stood at 9324 g. Further, the “Total Weight” value in test [1] (listed as mannitol-alone) came out at 9652 g.
Turning to fucoidan, the “Mean Root length (mm)” value in test [2] (n = 10) is recorded as 48.9 ^b mm; in test [2] (n = 10, listed as fucoidan), 48.9 mm; in test [3], 39.1 ^a mm. Moreover, the “mean root length (mm), +Mm” value in test [4] (setting [6]) is 20.2^b mm; in test [5] (setting [6]), 102.2^b mm. Further, the “mean root length (mm), −Mm” value in test [4] (setting [7]) is listed as 27.1^b mm; in test [5] (setting [7]), 129.2^c mm.
Regarding laminarin [Glucan-alone], the “Total Weight” value in test [1] is given as 10524 g. The “Marketable weight” value in test [1] (>35 mm) came to 10218 g.
